Like-named read-outs stand apart in the source and are kept apart here. One block for each compound: values may come before it.
Columns and labels:
rat TRPM8 [1] = target: T1, rat TRPM8 (Rattus norvegicus, UniProt Q8R455); settings: 22-24° C., McKemy et al. Nature 416:52-58 (2002); read-out: reported EC50 in oocytes; cited from earlier work
T1 construct: In the assays exemplified herein, cells which express the full-length TRPM8 polypeptide are used in high throughput assays; expressed in transfected cells; host or cells: Xenopus oocytes microinjected with rat TRPM8 cRNA
T1 sequence (Q8R455 whole entry): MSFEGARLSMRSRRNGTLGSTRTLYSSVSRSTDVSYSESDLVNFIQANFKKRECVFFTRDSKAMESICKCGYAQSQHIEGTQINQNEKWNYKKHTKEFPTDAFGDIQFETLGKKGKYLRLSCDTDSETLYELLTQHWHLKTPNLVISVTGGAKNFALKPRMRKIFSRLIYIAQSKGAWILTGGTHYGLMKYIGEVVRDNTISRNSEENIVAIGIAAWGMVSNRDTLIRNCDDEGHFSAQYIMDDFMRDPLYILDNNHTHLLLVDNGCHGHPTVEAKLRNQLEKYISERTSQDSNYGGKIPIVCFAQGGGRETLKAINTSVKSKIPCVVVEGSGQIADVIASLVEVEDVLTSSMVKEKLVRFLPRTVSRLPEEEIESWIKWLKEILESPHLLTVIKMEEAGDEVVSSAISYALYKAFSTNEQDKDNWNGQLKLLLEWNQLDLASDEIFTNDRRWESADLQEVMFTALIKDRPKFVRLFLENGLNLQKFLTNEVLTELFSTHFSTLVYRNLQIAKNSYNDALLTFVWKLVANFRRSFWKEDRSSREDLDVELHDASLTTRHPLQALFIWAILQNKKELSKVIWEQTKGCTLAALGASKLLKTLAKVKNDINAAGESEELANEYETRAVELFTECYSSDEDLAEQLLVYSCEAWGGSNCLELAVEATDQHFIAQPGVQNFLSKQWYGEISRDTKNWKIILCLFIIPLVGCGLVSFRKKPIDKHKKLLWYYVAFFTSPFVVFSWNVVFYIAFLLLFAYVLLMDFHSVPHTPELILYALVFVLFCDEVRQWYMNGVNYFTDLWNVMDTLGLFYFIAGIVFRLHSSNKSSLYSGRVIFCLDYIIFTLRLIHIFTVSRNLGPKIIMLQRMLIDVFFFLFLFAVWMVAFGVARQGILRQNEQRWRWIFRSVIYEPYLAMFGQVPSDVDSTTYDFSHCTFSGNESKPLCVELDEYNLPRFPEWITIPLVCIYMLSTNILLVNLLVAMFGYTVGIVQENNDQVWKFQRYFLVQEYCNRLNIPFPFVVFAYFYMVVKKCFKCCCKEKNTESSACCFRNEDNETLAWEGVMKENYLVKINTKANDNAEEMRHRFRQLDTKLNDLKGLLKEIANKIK

rat TRPM8 [2] = target: T1, rat TRPM8; assay: Voltage clamp electrophysiology in Xenopus oocytes expressing rat TRPM8 (OpusXpress); assay type: cell-based; settings: for peak agonist-induced currents: 4-6 independent oocytes; for peak agonist-induced currents / desensitization of agonist-induced currents: one day post-injection; for desensitization of agonist-induced currents: continued presence of agonist; for specific activation of rat TRPM8 expressed in oocytes: no responses in uninjected control oocytes
Method: Xenopus oocytes are microinjected with a TRPM8 nucleic acid sequence according to the invention.
The microinjected oocytes are voltage-clamped at around 60 mV using the OpusXpress 600A one day post-injection and treated with either buffer (control) or a potential or known TRPM8 modulator contained in same buffer at a fixed concentration or over a range of different concentrations (dose-escalation).
The current is measured for said buffer-treated or putative TRPM8 modulator-treated oocytes over a specific time period. Additionally, the current response is measured for oocytes treated with the same buffer which are not injected with a TRPM8 nucleic acid sequence (negative control).
The current response for said oocytes is compared in order to determine the effect (if any) of said potential TRPM8 modulator compound on TRPM8 activity and whether said effect is dose-specific.
In this experiment an electrophysiological assay was conducted using oocytes that express rat TRPM8. Specifically, oocytes were microinjected with 10 ng rat TRPM8 cRNA and were voltage-clamped at ˜60 mV using the OpusXpress 600A one day post-injection and treated with buffer and menthol (left traces) or icilin (right traces).
Oocytes were microinjected with 10 ng rat TRPM8 […] and voltage-clamped at ˜60 mV using the OpusXpress 6000A one day post-injection and then treated with the compounds shown in the FIG. 6. In the Figure, peak agonist-induced currents are summarized for 4-6 independent oocytes.
In these experiments, oocytes were again injected with 2 ng rat TRPM8 cRNA (as shown in left panel of FIG. 7) or uninjected (right panel) and currents were measured from ˜80 mV to 100 mV (in 20 mV increments) in the presence of buffer (control; green curves) or 100 μM menthol (red curves) four days post-injection. The blue curves in FIG. 7 depict menthol-specific currents obtained by subtracting control (green) from menthol (red) curves.
In this experiment, oocytes were again microinjected with 10 ng rat TRPM8 cRNA, voltage-clamped at ˜60 mV and currents measured 2-3 days post-injection.

rat TRPM8 [3] = target: T1, rat TRPM8; assay: Fluorimetric calcium imaging (FLIPR), HEK293 cells transiently transfected with rat TRPM8; assay type: cell-based; settings: chilled stimulus compared with warmer stimulus
Method: HEK-293 cells (about 50-70% confluency) contained in 10 cm dishes are transfected with 5 μg of TRPM8 DNA and pcDNA3 and 2 μg of RFP plasmids using TransH293.
After 24 hours, the cells are split into 384-well plates at ˜50,000 cells/well.
At 48 hours post-transfection the cells are loaded with 4 μM Fluo-3-AM 3 AM in HBSS for 30 minutes at 37° C.
The cells are then washed twice within HBSS containing 2.5 mM Probenicid and returned to 37° C. for 15 minutes.
Compound plates are prepared in HBSS at twice the final concentration and kept at 37° C. to insure that rTRPM8 is not activated by a decrease in ambient temperature during stimulation (TRPM8 is activated by temperatures<22° C.).
HEK293 cells are transfected with a plasmid encoding the rat TRPM8 cDNA (in pcDNA3.1) and are seeded into 384-well plates. 48 hours later, cells are loaded with Fluo-3-AM. Cells are then stimulated with various stimuli as shown in FIG. 2 and fluorescence intensity in each well measured using a Fluorimetric Imaging Plate Reader (FLIPR). […]
HEK293 cells transfected with a plasmid encoding rat TRPM8 cDNA contained in pcDNA3.1 were seeded into 384-well plates. […] Cells were then stimulated with the stimuli shown in FIG. 3 and fluorescence intensity in each well measured using a Fluorimetric Imaging Plate Reader (FLIPR). […]

[4] = Human taste test, cooling intensity; assay type: in vivo; settings: five human panelists, two trials, Tukey's HSD 5% risk level
Method: In this experiment the cooling effect of a putative coolant, SID 391254, identified using the subject assays was analyzed in human taste tests. Particularly, the cooling intensity for three test samples was tested in five human volunteer panelists in two trials. […] The tests were conducted in booths with the data recorded using Compusense software. Additionally, these experiments further included the administration of WS-3, a known coolant (positive control).
For both samples containing the known or the putative cooling compound (WS-3 and SID 391254 respectively), these compounds were contained in low sodium buffer (LSB) and 0.1% ethanol.
This experiment compared the cooling effect of another putative coolant compound (SID 10135651) identified using the described assays. […] As with the prior example, significant differences between the known and putative coolant compound vis-à-vis the control were calculated using Tukey's HSD (5% risk level). […] These tests were again conducted in booths with the data recorded using Compusense software.
The coolant effect of another putative cooling compound (SID 7292725) identified using the subject screening assays was tested in human taste tests. Again cooling intensity scores were determined based on results in 5 human taste panelists in two trials. Significant differences were again calculated using Tukey's HSD (5% risk level).

SMILES: CC1CCC(C(C)C)C(O)C1 (centres unmarked) [menthol]
EC50 (rat TRPM8 [1]): 67 µM | current/voltage (I/V) curve of menthol-specific currents (rat TRPM8 [2]; 100 μM menthol, 2 ng cRNA, four days post-injection): outward rectification | peak agonist-induced currents (rat TRPM8 [2]): large peak currents | desensitization of agonist-induced currents (rat TRPM8 [2]): partially-desensitize | specific activation of rat TRPM8 expressed in oocytes (rat TRPM8 [2]): specifically activate | EC50 (rat TRPM8 [2]; oocytes, 10 ng rat TRPM8 cRNA, 19.5° C.): 29.6 µM | potency of chilled versus warmer agent at activating TRPM8 (rat TRPM8 [3]): more potent

SMILES: CCNC(=O)C1CC(C)CCC1C(C)C (centres unmarked) [WS-3]
cooling intensity compared with negative control (LSB and 0.1% ethanol) [4]: substantially higher cooling intensity

More lines, main results first:

peak agonist-induced currents (rat TRPM8 [2]): small peak currents
SMILES: CC12CCC(CC1)C(C)(C)O2 [eucalyptol]

peak agonist-induced currents (rat TRPM8 [2]): small peak currents
SMILES: C [methane]

peak agonist-induced currents (rat TRPM8 [2]): large peak currents | specific activation of rat TRPM8 expressed in oocytes (rat TRPM8 [2]): specifically activate | potency of chilled versus warmer agent at activating TRPM8 (rat TRPM8 [3]): more potent
SMILES: O=C1NC(c2cccc([N+](=O)[O-])c2)=CCN1c1ccccc1O [icilin]
desensitization of agonist-induced currents (rat TRPM8 [2]): completely desensitize

— patent publication US20070259354A1, “OPTIMIZED TRPM8 NUCLEIC ACID SEQUENCES AND THEIR USE IN CELL BASED ASSAYS AND TEST KITS TO IDENTIFY TRPM8 MODULATORS” (Senomyx, Inc., priority 2005, published 2007)
